The structures appear in SMILES notation. Some results are limits rather than exact numbers.

This note sets out measurements from patent publication US20230219886A1, “NOVEL SELENO-NSAID ANALOGS AND USES THEREOF” (THE PENN STATE RESEARCH FOUNDATION, priority 2020, published 2023).

One data set concerns CNS: SF-295. The experiment in a line: NCI-60 dose-response, SF-295. Format: cell-based, human. The following applies: SF-295, 48 h. The text has this:
(§1) NCI-60 Analysis. 1a and 6a were submitted to National Cancer Institute's (NCI) Developmental Therapeutics Program (DTP) where the cytotoxicity profile was investigated across their 60 human cancer cell line panel according to the protocol available on multiple sources (71-73, 83). The COMPARE algorithm (73), was utilized to evaluate the activity profile of 6a in comparison to those of known cytotoxins established in marketed drugs and standard agent data sets in order to correlate plausible modes of action.
(§2) NCI-60 analysis. Compounds 1a, 5a and 6a were submitted to the National Cancer Institute's (NCI) Developmental Therapeutics Program (DTP). NCI-60 program consists in a panel of 60 human cancer cell lines from a variety of cancers, including refractory tumors such as lung, ovarian, CRC, breast, brain and renal cancers, and melanomas together with more treatable cancers such as leukemias (71). 1a [NSC: 803071], 5a [NSC: 820332] and 6a [NSC: 811013] were initially screened at one dose (10 μM) at 48 h. Then, NCI selected only compound 6a to perform dose-response characterization (72).

For the next data set, the system named is ME: LOX IMVI. Kind of data set: NCI-60 dose-response, LOX IMVI. The settings on record: 48 h. It counts as cell-based, human.
Excerpt: as §1, §2

The test system of another data set is BxPC3 cells. Kind of data set: MTT assay, pancreatic ductal adenocarcinoma cells BxPC3. It counts as cell-based. As for the experimental part: The cytotoxic response of 6a on pancreatic ductal adenocarcinoma cell lines (Panc-1, MIA PaCa-2 and BxPC3) was evaluated using MTT assay. […] To determine whether the in vitro efficacy of 6a translates to in vivo models, we performed a pilot tumor inhibition study in xenograft mouse model using BxPC3 cells. Athymic nude mice were subcutaneously injected with BxPC3 cells. After two weeks, mice were injected intraperitoneally with vehicle DMSO (control) or 6a (three times a week at a dose of 4 mg/Kg in 100 μL of DMSO). Tumor size and animal weights were measured twice a week.

A further data set concerns LC: EKVX. Kind of data set: NCI-60 dose-response, EKVX. The following applies: 48 h. Format: cell-based, human.
Excerpt: as §1, §2

The subject of another data set is CNS: SF-539. The experiment in a line: NCI-60 dose-response, SF-539. The following applies: SF-539, 48 h. Format: cell-based, human.
Excerpt: as §1, §2

Data set [1] deals with NCI-H226 (non-small cell lung cancer). Kind of data set: NCI-60 one-dose screen, NCI-H226. Format: cell-based, human. The settings on record: NCI-H226, 10 μM, 48 h.
Excerpt: as §1, §2

[2] abbreviates: read-out: LC50 (the source's name).

Turning to `C[Se]C(=O)CC1=C(C)/C(=C/c2ccc([S+](C)[O-])cc2)c2ccc(F)cc21` (centres unmarked) [Compound 6a, Se-methyl (Z)-2-(5-fluoro-2-methyl-1-(4-(methylsulfinyl)benzylidene)-1H-indenyl)ethaneselenoate], the GI50 was 24.2 nM in the data set with CNS: SF-295, 14.1 nM in the data set with ME: LOX IMVI, < 10 nM in the data set with LC: EKVX and 105 nM in the data set on CNS: SF-539. Further, the LC50 in the data set with CNS: SF-295 turned out to be 386 nM. Further, the TGI was 107 nM with CNS: SF-295, 29.6 nM with ME: LOX IMVI, 10.8 nM in the data set with LC: EKVX and 275 nM with CNS: SF-539. The LC50 (concentration giving 50% net cell kill) with ME: LOX IMVI was determined as 62.1 nM. The molecule further yielded an IC50 in the data set on BxPC3 cells of 1000 nM. Besides, the CC50 with LC: EKVX (setting [2]) was found to be 861 nM; in the data set with CNS: SF-539 (setting [2]), 718 nM.
Consider `C[Se]C(=O)c1ccccc1OC(C)=O` [Compound 1a, 2-((methylselanyl)carbonyl)phenyl acetate], for which the “Growth percent (GP)” value in data set [1] is given as < 12%.
